Data as given in patent US12540131B2 (Merck Sharp & Dohme LLC, priority 2019, dated 2026).

target: GST tagged truncated human mutant G2019S LRRK2 (Homo sapiens (Human), UniProt Q5S007, G2019S); experiment: LRRK2 Km ATP LanthaScreen Assay; format: biochemical; conditions: G2019S LRRK2, 134 μM ATP (Km ATP), mean values
Procedure, shortened: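 Enzyme (GST-tagged, truncated) was preincubated with compound for 15 min at RT in 50 mM Tris pH 8.5, 10 mM MgCl2, 0.01% Brij-35, 1 mM EGTA, 2 mM DTT and 0.05 mM orthovanadate. Fluorescein-LRRKtide and 134 μM ATP (Km) were then added for 90 min. EDTA and Tb-anti-pERM antibody stopped the reaction; the TR-FRET 520/495 ratio gave 4-parameter IC50s, reported as mean pIC50.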

Chain of GST tagged truncated human mutant G2019S LRRK2 (Q5S007 970-2527 G2019S): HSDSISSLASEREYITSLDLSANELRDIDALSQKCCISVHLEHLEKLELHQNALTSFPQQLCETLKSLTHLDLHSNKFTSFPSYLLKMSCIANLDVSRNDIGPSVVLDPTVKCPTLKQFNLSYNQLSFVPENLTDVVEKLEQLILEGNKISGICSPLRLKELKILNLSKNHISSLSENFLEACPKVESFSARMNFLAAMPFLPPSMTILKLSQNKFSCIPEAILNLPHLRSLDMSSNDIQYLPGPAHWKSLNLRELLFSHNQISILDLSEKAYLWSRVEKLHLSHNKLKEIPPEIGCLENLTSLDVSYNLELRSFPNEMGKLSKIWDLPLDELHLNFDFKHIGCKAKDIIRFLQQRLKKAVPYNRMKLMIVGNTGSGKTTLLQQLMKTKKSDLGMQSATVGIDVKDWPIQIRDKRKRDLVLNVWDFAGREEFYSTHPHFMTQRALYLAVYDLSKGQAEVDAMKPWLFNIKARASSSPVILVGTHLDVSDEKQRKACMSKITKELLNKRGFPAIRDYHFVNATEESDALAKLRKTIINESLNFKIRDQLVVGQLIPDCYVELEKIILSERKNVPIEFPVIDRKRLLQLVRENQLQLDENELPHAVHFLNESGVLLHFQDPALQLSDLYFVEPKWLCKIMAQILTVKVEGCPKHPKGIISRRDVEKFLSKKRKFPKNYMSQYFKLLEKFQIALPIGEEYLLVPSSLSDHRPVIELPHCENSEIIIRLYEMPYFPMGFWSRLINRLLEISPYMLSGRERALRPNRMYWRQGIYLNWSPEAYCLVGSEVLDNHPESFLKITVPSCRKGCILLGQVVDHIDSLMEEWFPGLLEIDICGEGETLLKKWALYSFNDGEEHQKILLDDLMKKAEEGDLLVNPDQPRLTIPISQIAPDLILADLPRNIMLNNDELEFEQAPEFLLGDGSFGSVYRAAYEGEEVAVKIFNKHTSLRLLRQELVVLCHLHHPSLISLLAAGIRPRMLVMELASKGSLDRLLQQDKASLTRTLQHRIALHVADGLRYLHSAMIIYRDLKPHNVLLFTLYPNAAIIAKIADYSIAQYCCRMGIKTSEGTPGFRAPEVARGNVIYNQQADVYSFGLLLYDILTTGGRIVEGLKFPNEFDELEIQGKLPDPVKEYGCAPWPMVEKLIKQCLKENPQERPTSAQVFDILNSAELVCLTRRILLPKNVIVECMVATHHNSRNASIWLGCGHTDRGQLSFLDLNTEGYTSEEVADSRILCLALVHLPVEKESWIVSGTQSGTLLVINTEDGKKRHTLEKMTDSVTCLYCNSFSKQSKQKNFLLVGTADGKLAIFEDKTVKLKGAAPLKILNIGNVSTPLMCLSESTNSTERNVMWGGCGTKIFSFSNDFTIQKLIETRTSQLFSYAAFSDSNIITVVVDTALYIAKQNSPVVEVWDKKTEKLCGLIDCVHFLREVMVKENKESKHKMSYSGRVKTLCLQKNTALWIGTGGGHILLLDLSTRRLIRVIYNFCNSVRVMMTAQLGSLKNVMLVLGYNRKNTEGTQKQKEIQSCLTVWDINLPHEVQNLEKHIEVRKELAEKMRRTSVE

With Cc1c(Nc2ncc3cc(Cl)c([C@@H]4CCN(C5CCCC5O)C[C@H]4F)cc3n2)cnn1C1CC1 (single isomer, unassigned) [Ex-4.159, (1S,2R)(3S,4S) or (1R,2S)(3S,4S) or (1R,2R)(3S,4S) or (1S,2S)(3S,4S) or (1S,2R)(3R,4R) or (1R,2S)(3R,4R) or (1R,2R)(3R,4R) or (1S,2S)(3R,4R) 2-(4-{6-chloro-2-[(1-cyclopropyl-5-methyl-1H-pyrazol-4-yl)amino]quinazolin-7-yl}-3-fluoropiperidin-1-yl)cyclopentan-1-ol] the “LRRK2 pIC50” value was greater than 9.20.
For Cc1c(Nc2ncc3cc(Cl)c([C@H]4CCN(C5CCCC5O)C[C@@H]4F)cc3n2)cnn1C1CC1 (single isomer, unassigned) [Ex-4.160, (1S,2R)(3S,4S) or (1R,2S)(3S,4S) or (1R,2R)(3S,4S) or (1S,2S)(3S,4S) or (1S,2R)(3R,4R) or (1R,2S)(3R,4R) or (1R,2R)(3R,4R) or (1S,2S)(3R,4R) 2-(4-{6-chloro-2-[(1-cyclopropyl-5-methyl-1H-pyrazol-4-yl)amino]quinazolin-7-yl}-3-fluoropiperidin-1-yl)cyclopentan-1-ol], the “LRRK2 pIC50” value was greater than 9.20.
For Cc1c(Nc2ncc3cc(Cl)c([C@@H]4CCN([C@H]5COC[C@H]5O)C[C@H]4F)cc3n2)cnn1C12CC(C1)C2 (single isomer, unassigned) [Ex-4.162, (3S,4S)(3S,4S) or (3S,4S)(3R,4R) or (3R,4R)(3S,4S) or (3R,4R)(3R,4R) 4-[4-(2-{[1-(bicyclo[1.1.1]pentan-1-yl)-5-methyl-1H-pyrazol-4-yl]amino}-6-chloroquinazolin-7-yl)-3-fluoropiperidin-1-yl]oxolan-3-ol], the “LRRK2 pIC50” value was greater than 9.20.
In the case of Cc1cc2cnc(Nc3cnn(C45CC(C4)C5)c3C)nc2cc1[C@@H]1CCN([C@H]2COC[C@H]2O)C[C@H]1F (single isomer, unassigned) [Ex-4.164, (3S,4S)(3S,4S) or (3S,4S)(3R,4R) or (3R,4R)(3S,4S) or (3R,4R)(3R,4R) 4-[4-(2-{[1-(bicyclo[1.1.1]pentan-1-yl)-5-methyl-1H-pyrazol-4-yl]amino}-6-methylquinazolin-7-yl)-3-fluoropiperidin-1-yl]oxolan-3-ol], the “LRRK2 pIC50” value is reported as greater than 9.20.

Point of comparison: Cc1c(Nc2ncc3cc(Cl)c(C4CCN(C5CCC(CC#N)C5)CC4)cc3n2)cnn1C1CC1 (single isomer, unassigned) [Ex-4.168, (1R,3R) or (1S,3R) or (1R,3S) or (1S,3S) [3-(4-{6-chloro-2-[(1-cyclopropyl-5-methyl-1H-pyrazol-4-yl)amino]quinazolin-7-yl}piperidin-1-yl)cyclopentyl]acetonitrile], “LRRK2 pIC50” value 8.88. Against it:
- Cc1c(Nc2ncc3cc(Cl)c([C@@H]4CCN([C@@H]5COC[C@@H]5O)C[C@H]4F)cc3n2)cnn1C12CC(C1)C2 (single isomer, unassigned) [Ex-4.161, (3S,4S)(3S,4S) or (3S,4S)(3R,4R) or (3R,4R)(3S,4S) or (3R,4R)(3R,4R) 4-[4-(2-{[1-(bicyclo[1.1.1]pentan-1-yl)-5-methyl-1H-pyrazol-4-yl]amino}-6-chloroquinazolin-7-yl)-3-fluoropiperidin-1-yl]oxolan-3-ol] — within 0.2 log units, 8.92
- Cc1cc2cnc(Nc3cnn(C45CC(C4)C5)c3C)nc2cc1[C@@H]1CCN([C@@H]2COC[C@@H]2O)C[C@H]1F (single isomer, unassigned) [Ex-4.165, (3S,4S)(3S,4S) or (3S,4S)(3R,4R) or (3R,4R)(3S,4S) or (3R,4R)(3R,4R) 4-[4-(2-{[1-(bicyclo[1.1.1]pentan-1-yl)-5-methyl-1H-pyrazol-4-yl]amino}-6-methylquinazolin-7-yl)-3-fluoropiperidin-1-yl]oxolan-3-ol] — lower, 8.67
- Clc1cc2cnc(Nc3cnn(C4CC4)c3Cl)nc2cc1C1CCN(C2COC(C3CC3)C2)CC1 (single isomer, unassigned) [Ex-4.166, (3R,5R) or (3S,5R) or (3R,5S) or (3S,5S) 6-chloro-N-(5-chloro-1-cyclopropyl-1H-pyrazol-4-yl)-7-[1-(5-cyclopropyloxolan-3-yl)piperidin-4-yl]quinazolin-2-amine] — higher, 9.17
- Clc1cc2cnc(Nc3cnn(C4CC4)c3Cl)nc2cc1C1CCN(C2COC(C3CC3)C2)CC1 (single isomer, unassigned) [Ex-4.167, (3R,5R) or (3S,5R) or (3R,5S) or (3S,5S) 6-chloro-N-(5-chloro-1-cyclopropyl-1H-pyrazol-4-yl)-7-[1-(5-cyclopropyloxolan-3-yl)piperidin-4-yl]quinazolin-2-amine] — lower, 8.14
- Cc1c(Nc2ncc3cc(Cl)c(C4CCN(C5CCC(CC#N)C5)CC4)cc3n2)cnn1C1CC1 (single isomer, unassigned) [Ex-4.169, (1R,3R) or (1S,3R) or (1R,3S) or (1S,3S) [3-(4-{6-chloro-2-[(1-cyclopropyl-5-methyl-1H-pyrazol-4-yl)amino]quinazolin-7-yl}piperidin-1-yl)cyclopentyl]acetonitrile] — lower, 8.25
- Cc1c(Nc2ncc3cc(Cl)c(C4CCN(C5CCC(CC#N)C5)CC4)cc3n2)cnn1C1CC1 (single isomer, unassigned) [Ex-4.170, (1R,3R) or (1S,3R) or (1R,3S) or (1S,3S) [3-(4-{6-chloro-2-[(1-cyclopropyl-5-methyl-1H-pyrazol-4-yl)amino]quinazolin-7-yl}piperidin-1-yl)cyclopentyl]acetonitrile] — within 0.2 log units, 8.81
- Cc1c(Nc2ncc3cc(Cl)c(C4CCN(C5CCC(CC#N)C5)CC4)cc3n2)cnn1C1CC1 (single isomer, unassigned) [Ex-4.171, (1R,3R) or (1S,3R) or (1R,3S) or (1S,3S) [3-(4-{6-chloro-2-[(1-cyclopropyl-5-methyl-1H-pyrazol-4-yl)amino]quinazolin-7-yl}piperidin-1-yl)cyclopentyl]acetonitrile] — lower, 8.51
- Cc1c(Nc2ncc3cc(Cl)c([C@H]4CCN(C5COC5)C[C@@H]4F)cc3n2)cnn1C1CC1(F)F (single isomer, unassigned) [Ex-4.175, (R)(3S,4S) or (S)(3S,4S) or (R)(3R,4R) or (S)(3R,4R) 6-chloro-N-[1-(2,2-difluorocyclopropyl)-5-methyl-1H-pyrazol-4-yl]-7-[(3R,4R)-3-fluoro-1-(oxetan-3-yl)piperidin-4-yl]quinazolin-2-amine] — higher, 9.10

same assay, conditions: G2019S LRRK2, 134 μM ATP (Km ATP), mean values; read-out: LRRK2 pIC50 (converted)

Point of comparison: Cc1c(Nc2ncc3cc(Cl)c(C4CCN(C5COC(C)(C)C5)CC4)cc3n2)cnn1C1CC1 (single isomer, unassigned) [Ex-4.173, (R) or (S) 6-chloro-N-(1-cyclopropyl-5-methyl-1H-pyrazol-4-yl)-7-[1-(5,5-dimethyloxolan-3-yl)piperidin-4-yl]quinazolin-2-amine], IC50 3.72 nM. Against it:
- Cc1c(Nc2ncc3cc(Cl)c(C4CCN(C5COC(C)(C)C5)CC4)cc3n2)cnn1C1CC1 (single isomer, unassigned) [Ex-4.174, (R) or (S) 6-chloro-N-(1-cyclopropyl-5-methyl-1H-pyrazol-4-yl)-7-[1-(5,5-dimethyloxolan-3-yl)piperidin-4-yl]quinazolin-2-amine] — lower, < 0.631 nM
